Reference: patent US10765670B2, “Use of anti-connexin agents for enhancing the therapeutic effect of acetylcholinesterase inhibitors” (COMMISSARIAT A L'ENERGIE ATOMIQUE ET AUX ENERGIES …, priority 2011, dated 2020)
Marks after values point to notes of the source that are not given here.

Key:
male C57bl/6 mice = assay: Electro-encephalographic recording of hippocampal theta activity in mice; type: in vivo; settings: for EEG Relative power to vehicles (relative power of hippocampal theta rhythm): n=7
Method: Electrophysiological effects of donepezil were evaluated by analysis of hippocampal electroencephalographic activity (EEG) as described previously in WO2010/029131. Briefly, the assay is as follows:
Two groups of male C57bl/6 mice (seven mice from 4 to 5 month old and seven mice from 17 to 18 month old) were pre-implanted with bilateral hippocampal bipolar electrodes under isoflurane anaesthesia. A two-week period of recovery was realized before recordings.
Different intraperitoneal treatments were performed by circular combination of 7 mice per treatment (donepezil 0.1 and 0.3 mg/kg, meclofenamic 1 mg/kg, donepezil 0.1 mg/kg+MFA 1 mg/kg).
EEG measures were performed on different batches of awoke mice (previously implanted and tamed) by recordings two hours after injection. The spectral analysis is carried out by Fourier transform (FFT) and allows the calculation of the relative powers for each Hertz and each second. FFT data are then averaged minute by minute and reported to control solvent recording realized on the day before in strictly identical experimental conditions. The spectral powers of two hippocampal electrodes are then averaged between 3 and 12 Hertz and represented hourly.
At day 1, saline was administered intraperitoneally to “adult” or “elderly” mice (n=7), and θ-hippocampal activity was measured for two consecutive hours. On day 2, donepezil alone or in combination with MFA is injected, and θ-hippocampal activity is related to that measured on day 1.

[1] = tested on: C57bl/6 male mice, 17-18-month old; assay: Behavioral test of working memory, T-maze spontaneous alternation (SA-task) in elderly mice; type: in vivo; settings: for promnesiant effect (increase of total alternation, FIG. 2) / total alternation in T-maze (FIG. 2): elderly mice; for SA-task relative to vehicles (mean percentage of alternation relative to vehicles over the seven trials): 30 min before T-maze, 17-18-month old mice
Description: The alternating sequential test is widely used to assess spatial working memory in mice (Beracochea D. J. and Jaffard R., Behav. Neurosci. 101 (1987) 187-97). Spontaneous alternation is the innate tendency of rodents to alternate their choices to enter into the compartments of arrival of a T-maze device, over successive trials. To alternate during a given trial N, the animal must remember the choice made selectively in test N−1, so the decline in alternating will reflect the phenomenon of oblivion. The response in alternating is performance measure. Sequential alternating assess more specifically the sensitivity to interference, a major factor in oblivion.
The experiment took place in a T-maze (50 cm×10 cm×25 cm). All the subjects (C57bl/6 male mice, 17-18-month old, n=9) were given 7 successive trials separated by a 90-s intertrial interval. To begin a trial, the mouse was placed in the start box for 90 s before the door to the stem was opened. When the subject entered one of the goal arms, the door to that arm was closed. The chosen arm and the time that elapsed between opening the door and the arrival to the end of the chosen arm (task achievement time) were registered. Following a 30-s confinement period in the chosen arm, the animal was removed and placed in the start box for a new trial. Between each test, the unit was cleaned with water and alcohol to avoid olfactory detection. An alternation response was considered each time the subject entered the arm opposite to the one visited on the immediately previous trial. Alternation rate was calculated taking into account the 6 successive trials, and expressed in percentage relative to the maximal alternation rate of 100% (obtained when the subject never returned into the same arm for two consecutive trials).
C57BL/6 mice of 17 to 18 months (“elderly” mice) were intraperitoneally injected with a solution of NaCl (vehicle), donepezil (DZP), meclofenamic acid (MFA) or a combination of these two latter compounds, 30 minutes before T-maze experiment.
Thirty minutes after treatment (NaCl, donepezil, MFA), “elderly” mice are placed in the T-maze device. The percentage of alternation was measured for 7 consecutive trials, 50% corresponding to a random alternation.

[2] = Wagner C. et al 2007; cited from earlier work
rodents = settings: MFA 1 mg/kg, previously described; cited from earlier work

Compound | effect on EEG (θ-hippocampal activity) (male C57bl/6 mice; MFA alone 1 mg/kg i.p.) | promnesiant effect (increase of total alternation, FIG. 2) ([1]; MFA alone 1 mg/kg i.p.) | alternation by blocks of two trials (FIG. 3) ([1]; MFA alone 1 mg/kg i.p., three blocks of trials) | dose at which the anti-inflammatory effect is observed in vivo [2] | effect on the electroencephalographic signal (rodents) | response of θ-hippocampal activity (FIG. 1) (male C57bl/6 mice; 4-5-month old mice, donepezil 0.1 mg/kg i.p.) | response of θ-hippocampal activity (FIG. 1) (male C57bl/6 mice; 4-5-month old mice, donepezil 0.3 mg/kg i.p.) | response of θ-hippocampal activity (FIG. 1) (male C57bl/6 mice; 17-18-month old mice, donepezil 0.3 mg/kg i.p., second hour of recording) | EEG Relative power to vehicles (relative power of hippocampal theta rhythm) (male C57bl/6 mice; donepezil 0.1 mg/kg intraperitoneal) | EEG Relative power to vehicles (relative power of hippocampal theta rhythm) (male C57bl/6 mice; donepezil 0.3 mg/kg intraperitoneal) | SA-task relative to vehicles (mean percentage of alternation relative to vehicles over the seven trials) ([1]; donepezil 0.1 mg/kg i.p.) [%] | promnesiant effect (increase of total alternation, FIG. 2) ([1]; donepezil 0.1 mg/kg i.p.) | alternation by blocks of two trials (FIG. 3), memory interference ([1]; donepezil 0.1 mg/kg i.p., third block (trials 6 and 7)) | SA-task relative to vehicles (mean percentage of alternation relative to vehicles over the seven trials) ([1]; donepezil 0.3 mg/kg i.p., p<0.01) [%**] | promnesiant effect (increase of total alternation, FIG. 2) ([1]; donepezil 0.3 mg/kg i.p.) | promnesiant effect (increase of total alternation, FIG. 2) ([1]; donepezil 1 mg/kg i.p.) | total alternation in T-maze (FIG. 2) ([1]; donepezil alone 0.3 mg/kg i.p.) | total alternation in T-maze (FIG. 2) ([1]; donepezil alone 1 mg/kg i.p.)
Cc1ccc(Cl)c(Nc2ccccc2C(=O)O)c1Cl [MFA, Benzoic 2-[(2,6-di-chloro-3-phenyl)amino] acid] | no effect by its own | no promnesiant effect significant | no significant effect | approximately 5 mg/kg/day | not affecting the electroencephalographic signal | – | – | – | – | – | – | – | – | – | – | – | – | –
COc1cc2c(cc1OC)C(=O)C(CC1CCN(Cc3ccccc3)CC1)C2 (stereo not drawn) [donepezil, 2,3-dihydro-5,6-dimethoxy-2-[[1-(phenylmethyl)-4-piperidinyl]methyl]-1H-i-nden-1-one] | – | – | – | – | – | do not respond significantly | do not respond significantly | an effect | 1 | 1 | 35 | no significant promnesiant effect | partially counteract the interference phenomenon | 48 | significant promnesiant effect | significant promnesiant effect | around 75% | around 75%
